Where a name gives a salt, the structure may show the parent alone. Read-outs that look alike come from different tables or passages of the source.
What was measured:
[1] = system: characteristic stretching or writhing syndrome induced by phenylquinone; assay: standard phenylquinone writhing test (PQW), analgesic activity, oral; conditions: Mus musculus
Protocol: A test compound suspended in 1% methylcellulose was given orally to fasted (17-21 hours) female white mice, 5-20 animals per double blind test. Aqueous (0.01% phenyl-p-benzoquinone) phenylquinone was injected intraperitoneally at 24 minutes later using 0.20 ml per mouse. […] This is reported as PQW ED50 in the table below.

[2] = system: morphine-induced Straub tail; assay: narcotic antagonist (anti-Straub tail) test, prevention of morphine-induced Straub tail; conditions: Mus musculus, ip, 10 min, read-out: MOUSE ED50 VALUES: ANTI-STRAUB TAIL
Protocol: The narcotic antagonist (anti-Straub tail) property of the compounds is estimated by their ability to prevent morphine-induced Straub tail in mice. […] Prevention of the induction of a 90° Straub tail for minutes after the morphine sulfate injection is considered to indicate narcotic antagonism in the compound tested.

in vivo = conditions: mouse, sc, 135 mg/kg
Protocol: A positive Straub tail response was recorded if a tail was erected for 3 seconds at any time within 25 minutes after dosing. A quantal Straub tail ED50 was calculated by the moving average method and is an indication of physical dependence.

[3] = read-out: MOUSE ED50 VALUES: PQW
[4] = 0.5 h, read-out: MOUSE ED50 VALUES: PQW (peak time value)

SMILES	ED50 [1, 3]	ED50 [2]	ED50 [1, 4]	ED50 (in vivo)
COc1ccc2c3c1OC1C(F)C=CC4C(C2)N(C)CCC341 (stereo not drawn) [Ayer 3,137,701, reference compound]	32 mg/kg	> 162 mg/kg	–	–
COc1ccc2c3c1O[C@H]1[C@@H](O)C=C[C@H]4[C@@H](C2)N(C)CC[C@@]341 [Codeine PO4, reference compound]	–	> 140 mg/kg	4.7 mg/kg	–
COc1ccc2c3c1O[C@H]1C(F)=CC[C@H]4[C@@H](C2)N(C)CC[C@]314 [Compound 2, 17-Methyl-6,7-didehydro-4,5-epoxy-6-fluoro-3-methoxymorphinan Hydrochloride]	8 mg/kg	94 mg/kg	–	26 mg/kg
COc1ccc2c3c1O[C@H]1C(F)(F)CC[C@H]4[C@@H](C2)N(C)CC[C@@]341 [Compound 4, 17-Methyl-4,5-epoxy-6,6-difluoro-3-methoxymorphinan Hydrochloride]	2.7 mg/kg	> 81 mg/kg	–	10 mg/kg
COc1ccc2c3c1O[C@H]1C(F)(F)CC[C@H]4[C@@H](C2)N(CC2CCC2)CC[C@@]341 [Compound 9, 17-Cyclobutylmethyl-4,5-epoxy-6,6-difluoro-3-methoxymorphinan Hydrochloride]	–	4.1 mg/kg	2.9 mg/kg	> 135 mg/kg
COc1ccc2c3c1O[C@H]1C(F)(F)CC[C@@]4(F)[C@@H](C2)N(CC2CC2)CC[C@]314 [Compound 13, 17-Cyclopropylmethyl-4,5-epoxy-6,6,14β-trifluoro-3-methoxymorphinan H ydrochloride]	> 135 mg/kg	–	–	> 135 mg/kg
COc1ccc2c3c1O[C@H]1C(F)(F)CC[C@@]4(F)[C@@H](C2)N(CC2CCC2)CC[C@]314.Cl [Compound 17, 17-Cyclobutylmethyl-4,5α-epoxy-6,6,14β-trifluoro-3-methoxymorphinan Hydrochloride]	> 135 mg/kg	17 mg/kg	–	> 135 mg/kg
COc1ccc2c3c1O[C@H]1C(F)(F)CC[C@H]4[C@@H](C2)N(CC2CC2)CC[C@@]341 [Compound 22, 17-Cyclopropylmethyl-4,5-epoxy-6,6-difluoro-3-methoxymorphinan]	–	0.15 mg/kg	2.2 mg/kg	> 54 mg/kg
COc1ccc2c3c1O[C@H]1C(F)=CC[C@H]4[C@@H](C2)N(CC2CC2)CC[C@]314 [Compound 23, 17-Cyclopropylmethyl-6,7-didehydro-4,5-epoxy-6-fluoro-3-methoxymorphinan]	18 mg/kg	0.21 mg/kg	–	> 135 mg/kg
COc1ccc2c3c1O[C@H]1C(F)(F)CC[C@@]4(O)[C@@H](C2)N(CC2CCC2)CC[C@]314.Cl [Compound 30, 17-Cyclobutylmethyl-4,5α-epoxy-6,6-difluoro-14β-hydroxy-3-methoxymorphinan Hydrochloride]	26 mg/kg	10.8 mg/kg	–	–
CN1CC[C@]23c4c5ccc(O)c4O[C@H]2[C@@H](O)C=C[C@H]3[C@H]1C5 [Morphine SO4, reference compound]	–	–	3 mg/kg	–

— US4236008A, “Fluorination of precursors for fluorine analogs of hydrocodone and oxycodone” (priority 1978, dated 1980)
